Source: patent publication US7202280B2, “Methods for the treatment and prevention of pancreatitis and for induction of liver regeneration” (priority 2002, dated 2007)

System: syngenic and metallothionein-SSAT mice
Assay: Hepatic, pancreatic and renal polyamine concentration in syngenic and metallothionein-SSAT mice after analogue
Assay type: in vivo, mouse
Settings: 24 h before sacrifice
Experimental: α-methylspermidine, Bis-α-methylspermine and α-methylspermine were administered in saline. […] The data are expressed as means ±S.D. For statistical analysis, the two-tailed Student's t test was used.

[1] = Tg (transgenic) mice, 12.5 mg/kg
[2] = Tg (transgenic) mice, 37.5 mg/kg

CC(N)CCNCCCCNCCC(C)N (stereo not drawn) [bis-α-methylspermine, 1,12-dimethylspermine]
pancreatic polyamine concentration, N^8-Acetylspermidine (Sg (syngenic) mice, 50 mg/kg): 82.23 pmoles/mg tissue wet weight
pancreatic polyamine concentration, Putrescine (Sg (syngenic) mice, 50 mg/kg): 297.48 ± 123.94^++ pmoles/mg tissue wet weight
pancreatic polyamine concentration, Spermidine (Sg (syngenic) mice, 50 mg/kg): 5613.06 ± 608.55 ^++ pmoles/mg tissue wet weight
pancreatic polyamine concentration, Spermine (Sg (syngenic) mice, 50 mg/kg): 561.50 ± 77.66 ^++ pmoles/mg tissue wet weight
renal concentration, Bis-α-Methylspermine (Sg (syngenic) mice, 50 mg/kg): 459.26 pmoles/mg tissue wet weight
renal polyamine concentration, N^8-Acetylspermidine (Sg (syngenic) mice, 50 mg/kg): 21.07 ± 5.81 pmoles/mg tissue wet weight
renal polyamine concentration, Putrescine (Sg (syngenic) mice, 50 mg/kg): 98.32 pmoles/mg tissue wet weight
renal polyamine concentration, Spermidine (Sg (syngenic) mice, 50 mg/kg): 248.63 pmoles/mg tissue wet weight
renal polyamine concentration, Spermine (Sg (syngenic) mice, 50 mg/kg): 424.06 pmoles/mg tissue wet weight
hepatic concentration, Bis-α-Methylspermine [1]: 29.55 pmoles/mg tissue wet weight
hepatic polyamine concentration, N^1-Acetylspermidine [1]: 226.74 pmoles/mg tissue wet weight
hepatic polyamine concentration, N^8-Acetylspermidine [1]: 9.43 pmoles/mg tissue wet weight
hepatic polyamine concentration, Putrescine [1]: 944.38 pmoles/mg tissue wet weight
hepatic polyamine concentration, Spermidine [1]: 792.81 pmoles/mg tissue wet weight
hepatic polyamine concentration, Spermine [1]: 104.48 pmoles/mg tissue wet weight
pancreatic polyamine concentration, N^1-Acetylspermidine [1]: 267.18 pmoles/mg tissue wet weight
pancreatic polyamine concentration, Putrescine [1]: 6168.51 ± 1253.00 pmoles/mg tissue wet weight
pancreatic polyamine concentration, Spermidine [1]: 3646.27 ± 367.99 pmoles/mg tissue wet weight
pancreatic polyamine concentration, Spermine [1]: 187.07 ± 5.15 pmoles/mg tissue wet weight
renal polyamine concentration, N^1-Acetylspermidine [1]: 19.74 pmoles/mg tissue wet weight
renal polyamine concentration, N^8-Acetylspermidine [1]: 16.35 ± 1.03 pmoles/mg tissue wet weight
renal polyamine concentration, Putrescine [1]: 184.32 pmoles/mg tissue wet weight
renal polyamine concentration, Spermidine [1]: 235.80 pmoles/mg tissue wet weight
renal polyamine concentration, Spermine [1]: 739.17 pmoles/mg tissue wet weight
hepatic concentration, Bis-α-Methylspermine (Tg (transgenic) mice, 25 mg/kg): 105.83 pmoles/mg tissue wet weight
hepatic polyamine concentration, N^1-Acetylspermidine (Tg (transgenic) mice, 25 mg/kg): 219.53 pmoles/mg tissue wet weight
hepatic polyamine concentration, N^8-Acetylspermidine (Tg (transgenic) mice, 25 mg/kg): 9.03 pmoles/mg tissue wet weight
hepatic polyamine concentration, Putrescine (Tg (transgenic) mice, 25 mg/kg): 895.27 pmoles/mg tissue wet weight
hepatic polyamine concentration, Spermidine (Tg (transgenic) mice, 25 mg/kg): 673.04 pmoles/mg tissue wet weight
hepatic polyamine concentration, Spermine (Tg (transgenic) mice, 25 mg/kg): 66.74 pmoles/mg tissue wet weight
pancreatic concentration, Bis-α-Methylspermine (Tg (transgenic) mice, 25 mg/kg): 315.13 ± 82.18 pmoles/mg tissue wet weight
pancreatic polyamine concentration, N^1-Acetylspermidine (Tg (transgenic) mice, 25 mg/kg): 474.31 pmoles/mg tissue wet weight
pancreatic polyamine concentration, N^8-Acetylspermidine (Tg (transgenic) mice, 25 mg/kg): 64.06 pmoles/mg tissue wet weight
pancreatic polyamine concentration, Putrescine (Tg (transgenic) mice, 25 mg/kg): 7573.46 ± 1084.90 pmoles/mg tissue wet weight
pancreatic polyamine concentration, Spermidine (Tg (transgenic) mice, 25 mg/kg): 3389.87 ± 447.32 pmoles/mg tissue wet weight
pancreatic polyamine concentration, Spermine (Tg (transgenic) mice, 25 mg/kg): 73.43 ± 6.82 pmoles/mg tissue wet weight
renal concentration, Bis-α-Methylspermine (Tg (transgenic) mice, 25 mg/kg): 315.13 pmoles/mg tissue wet weight
renal polyamine concentration, N^1-Acetylspermidine (Tg (transgenic) mice, 25 mg/kg): 25.57 pmoles/mg tissue wet weight
renal polyamine concentration, N^8-Acetylspermidine (Tg (transgenic) mice, 25 mg/kg): 17.52 ± 3.88 pmoles/mg tissue wet weight
renal polyamine concentration, Putrescine (Tg (transgenic) mice, 25 mg/kg): 137.26 pmoles/mg tissue wet weight
renal polyamine concentration, Spermidine (Tg (transgenic) mice, 25 mg/kg): 216.59 pmoles/mg tissue wet weight
renal polyamine concentration, Spermine (Tg (transgenic) mice, 25 mg/kg): 565.06 pmoles/mg tissue wet weight
hepatic concentration, Bis-α-Methylspermine [2]: 158.82 pmoles/mg tissue wet weight
hepatic polyamine concentration, N^1-Acetylspermidine [2]: 355.10 pmoles/mg tissue wet weight
hepatic polyamine concentration, N^8-Acetylspermidine [2]: 19.03 pmoles/mg tissue wet weight
hepatic polyamine concentration, Putrescine [2]: 1032.66 pmoles/mg tissue wet weight
hepatic polyamine concentration, Spermidine [2]: 404.05 pmoles/mg tissue wet weight
hepatic polyamine concentration, Spermine [2]: 74.10 pmoles/mg tissue wet weight
pancreatic concentration, Bis-α-Methylspermine [2]: 421.62 ± 147.44 pmoles/mg tissue wet weight
pancreatic polyamine concentration, N^1-Acetylspermidine [2]: 339.96 pmoles/mg tissue wet weight
pancreatic polyamine concentration, N^8-Acetylspermidine [2]: 90.85 pmoles/mg tissue wet weight
pancreatic polyamine concentration, Putrescine [2]: 8158.57 ± 2876.94 pmoles/mg tissue wet weight
pancreatic polyamine concentration, Spermidine [2]: 2268.60 ± 1821.72 pmoles/mg tissue wet weight
pancreatic polyamine concentration, Spermine [2]: 98.77 ± 82.83 pmoles/mg tissue wet weight
renal concentration, Bis-α-Methylspermine [2]: 421.62 pmoles/mg tissue wet weight
renal polyamine concentration, N^1-Acetylspermidine [2]: 27.37 pmoles/mg tissue wet weight
renal polyamine concentration, N^8-Acetylspermidine [2]: 16.82 ± 4.23 pmoles/mg tissue wet weight
renal polyamine concentration, Putrescine [2]: 225.66 pmoles/mg tissue wet weight
renal polyamine concentration, Spermidine [2]: 185.57 pmoles/mg tissue wet weight
renal polyamine concentration, Spermine [2]: 426.59 pmoles/mg tissue wet weight
hepatic concentration, Bis-α-Methylspermine (Tg (transgenic) mice, 50 mg/kg): 300.81 pmoles/mg tissue wet weight
hepatic polyamine concentration, N^1-Acetylspermidine (Tg (transgenic) mice, 50 mg/kg): 207.30 pmoles/mg tissue wet weight
hepatic polyamine concentration, N^8-Acetylspermidine (Tg (transgenic) mice, 50 mg/kg): 19.27 pmoles/mg tissue wet weight
hepatic polyamine concentration, Putrescine (Tg (transgenic) mice, 50 mg/kg): 717.95 pmoles/mg tissue wet weight
hepatic polyamine concentration, Spermidine (Tg (transgenic) mice, 50 mg/kg): 293.21 pmoles/mg tissue wet weight
hepatic polyamine concentration, Spermine (Tg (transgenic) mice, 50 mg/kg): 69.63 pmoles/mg tissue wet weight
pancreatic concentration, Bis-α-Methylspermine (Tg (transgenic) mice, 50 mg/kg): 400.64 ± 63.85 pmoles/mg tissue wet weight
pancreatic polyamine concentration, N^1-Acetylspermidine (Tg (transgenic) mice, 50 mg/kg): 288.51 pmoles/mg tissue wet weight
pancreatic polyamine concentration, Putrescine (Tg (transgenic) mice, 50 mg/kg): 5123.85 ± 573.32 pmoles/mg tissue wet weight
pancreatic polyamine concentration, Spermidine (Tg (transgenic) mice, 50 mg/kg): 2326.21 ± 126.42 pmoles/mg tissue wet weight
pancreatic polyamine concentration, Spermine (Tg (transgenic) mice, 50 mg/kg): 119.48 ± 37.92 pmoles/mg tissue wet weight
renal concentration, Bis-α-Methylspermine (Tg (transgenic) mice, 50 mg/kg): 400.64 pmoles/mg tissue wet weight
renal polyamine concentration, N^8-Acetylspermidine (Tg (transgenic) mice, 50 mg/kg): 12.21 ± 4.20 pmoles/mg tissue wet weight
renal polyamine concentration, Putrescine (Tg (transgenic) mice, 50 mg/kg): 173.97 pmoles/mg tissue wet weight
renal polyamine concentration, Spermidine (Tg (transgenic) mice, 50 mg/kg): 204.20 pmoles/mg tissue wet weight
renal polyamine concentration, Spermine (Tg (transgenic) mice, 50 mg/kg): 481.68 pmoles/mg tissue wet weight
